Literature values, collected in paper PMC2751796 (Pharmacology & therapeutics, 2009).
Like-named read-outs stand apart in the source and are kept apart here.

Legend:
P-gp [1] = conditions: cited from earlier work; for Fold change in brain uptake ratio in inhibitor-treated vs. control mice / Fold change in brain uptake ratio in inhibitor-treated vs. control mice (value corrected for drug in vasculature): Conc.
P-gp [2] = target: P-gp (Rattus norvegicus, UniProt Q6PSM0); conditions: cited from earlier work; for Increase in brain-to-plasma AUC ratio with elacridar: studies in rats (so in the source), ref Barraud de Lagerie et al., 2004
[3] = mice, cited from earlier work
P-gp [4] = conditions: read-out: Reported EC50; ref Ekins et al., 2002; Rautio et al., 2006; cited from earlier work
[5] = cited from earlier work; for Increase of plasma AUC with ritonavir (200 mg twice daily, 5.5 days): ref Mukwaya et al., 2005
[6] = cited from earlier work
[7] = cited from earlier work; remark: listed apart in the source
P-gp [8] = conditions: ref Hugnet et al., 1996; Mealey et al., 2001, 2003, 2008; Sartor et al., 2004; cited from earlier work
P-gp and BCRP = conditions: ref Oostendorp et al., 2009; Chen et al., 2008; cited from earlier work
Bcrp = conditions: mouse, in vivo; cited from earlier work
P-gp [9] = conditions: four adult rhesus monkeys; ref Warren et al., 2000; cited from earlier work
P-gp [10] = conditions: cited from earlier work
P-gp [11] = conditions: parameter not given; ref Saito et al., 2001; cited from earlier work
[12] = Zosuquidar (50 mg/kg, IV), ref Choo et al., 2000
[13] = Valspodar (12.5 mg/kg, IV), ref Choo et al., 2000
[14] = Verapamil (12.5 mg/kg, IV), ref Choo et al., 2000
[15] = 16 mg, eight healthy subjects, ref Sadeque et al., 2000

Sequence of P-gp (Rattus norvegicus, UniProt Q6PSM0) (Q6PSM0 1-1272): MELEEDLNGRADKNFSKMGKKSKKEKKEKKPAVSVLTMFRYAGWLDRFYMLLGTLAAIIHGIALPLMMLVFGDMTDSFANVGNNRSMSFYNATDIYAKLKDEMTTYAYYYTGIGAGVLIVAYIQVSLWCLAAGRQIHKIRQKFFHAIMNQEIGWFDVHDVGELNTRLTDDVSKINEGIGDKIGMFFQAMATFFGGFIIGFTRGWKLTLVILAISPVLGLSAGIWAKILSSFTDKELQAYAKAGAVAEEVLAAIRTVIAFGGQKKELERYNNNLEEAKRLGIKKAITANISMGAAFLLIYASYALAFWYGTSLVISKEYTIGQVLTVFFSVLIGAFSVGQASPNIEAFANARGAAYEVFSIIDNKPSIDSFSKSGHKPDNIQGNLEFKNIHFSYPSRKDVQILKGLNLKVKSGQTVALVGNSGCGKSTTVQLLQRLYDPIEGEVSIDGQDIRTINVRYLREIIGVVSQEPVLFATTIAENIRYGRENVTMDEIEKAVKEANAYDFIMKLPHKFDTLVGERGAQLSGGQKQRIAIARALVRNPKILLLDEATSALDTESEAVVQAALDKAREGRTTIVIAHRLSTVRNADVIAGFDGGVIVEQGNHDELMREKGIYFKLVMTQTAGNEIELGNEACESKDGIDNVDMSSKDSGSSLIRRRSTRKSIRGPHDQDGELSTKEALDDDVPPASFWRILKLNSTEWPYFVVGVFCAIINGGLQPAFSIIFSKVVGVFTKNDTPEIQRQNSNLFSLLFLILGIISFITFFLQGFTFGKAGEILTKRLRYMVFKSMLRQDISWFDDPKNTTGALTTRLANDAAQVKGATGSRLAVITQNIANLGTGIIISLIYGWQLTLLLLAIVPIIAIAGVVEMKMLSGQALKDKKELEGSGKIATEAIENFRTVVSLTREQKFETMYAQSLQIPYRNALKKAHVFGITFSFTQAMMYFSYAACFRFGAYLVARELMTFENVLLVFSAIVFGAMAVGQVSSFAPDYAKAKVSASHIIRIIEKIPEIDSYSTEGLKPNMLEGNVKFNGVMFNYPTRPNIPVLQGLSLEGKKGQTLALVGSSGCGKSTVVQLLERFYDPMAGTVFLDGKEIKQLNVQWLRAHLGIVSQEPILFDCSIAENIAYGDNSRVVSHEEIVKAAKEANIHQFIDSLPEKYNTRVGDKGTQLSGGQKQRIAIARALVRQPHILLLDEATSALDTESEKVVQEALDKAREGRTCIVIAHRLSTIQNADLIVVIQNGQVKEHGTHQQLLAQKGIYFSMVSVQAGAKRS

CC(=O)O[C@@]12CO[C@@H]1C[C@H](O)[C@@]1(C)C(=O)[C@H](O)C3=C(C)[C@@H](OC(=O)[C@H](O)[C@@H](NC(=O)OC(C)(C)C)c4ccccc4)C[C@@](O)([C@@H](OC(=O)c4ccccc4)[C@H]21)C3(C)C [Docetaxel]
Increase in brain uptake by single oral doses of valspodar and elacridar (P-gp [1]; ref Kemper et al., 2004c): up to 2.6 fold

CC(C)(C)c1ccc(C(O)CCCN2CCC(C(O)(c3ccccc3)c3ccccc3)CC2)cc1 (centres unmarked) [terfenadine]
Increase in brain uptake with cyclosporine in rats (P-gp [2]; ref Obradovic et al., 2007): several-fold

C/C=C/C[C@@H](C)C(=O)[C@H]1C(=O)N[C@@H](C(C)C)C(=O)N(C)CC(=O)N(C)[C@@H](CC(C)C)C(=O)N[C@@H](C(C)C)C(=O)N(C)[C@@H](CC(C)C)C(=O)N[C@@H](C)C(=O)N[C@H](C)C(=O)N(C)[C@@H](CC(C)C)C(=O)N(C)[C@@H](CC(C)C)C(=O)N(C)[C@@H](C(C)C)C(=O)N1C [Valspodar]
Inhibitor concentration (brain) ([3]; 50 mg/kg, PO, ref Mayer et al., 1997): 250 ng/g

CC(=O)O[C@H]1C(=O)[C@@]2(C)[C@H]([C@H](OC(=O)c3ccccc3)[C@]3(O)C[C@H](OC(=O)[C@H](O)[C@@H](NC(=O)c4ccccc4)c4ccccc4)C(C)=C1C3(C)C)[C@]1(OC(C)=O)CO[C@@H]1C[C@@H]2O [Paclitaxel]
Increase in brain uptake with elacridar (P-gp [1]; elacridar plasma concentrations <900 ng/ml, ref Kemper et al., 2003): 5 fold

CC(C)(C)NC(=O)[C@@H]1CN(Cc2cccnc2)CCN1C[C@@H](O)C[C@@H](Cc1ccccc1)C(=O)N[C@H]1c2ccccc2C[C@H]1O [Indinavir]
EC50 (P-gp [4]): > 50 µM

CCCN(CCC)S(=O)(=O)c1ccc(C(=O)O)cc1 [probenecid]
Probenecid CSF concentrations at 2500 mg/m^2 ([5]; ref Bode et al., 1980): 2.4 to 3.4 µg/mL

CC(C)(C)NC(=O)[C@@H]1C[C@@H]2CCCC[C@@H]2CN1C[C@@H](O)[C@H](Cc1ccccc1)NC(=O)[C@H](CC(N)=O)NC(=O)c1ccc2ccccc2n1 [Saquinavir]
Fold change in brain uptake ratio in inhibitor-treated vs. control mice (P-gp [1]; [12]): ∼ 3.0, Conc. fold
EC50 (P-gp [4]): 6.5 µM

Cc1c(O)cccc1C(=O)N[C@@H](CSc1ccccc1)[C@H](O)CN1C[C@H]2CCCC[C@H]2C[C@H]1C(=O)NC(C)(C)C [Nelfinavir]
Increase in brain uptake with zosuquidar in rats (P-gp [2]; dose-dependent, ref Anderson et al., 2006): ≤ 29 fold
CNS distribution in untreated subjects (brain / plasma conc. ratio) ([6]; ref Kaddoumi et al., 2007, Eyal, et al., 2009): 0.04
CNS distribution in untreated subjects (lumbar CSF / plasma, conc. ratio) ([6]; ref Kaddoumi et al., 2007): 0.006
Fold change in brain uptake ratio in inhibitor-treated vs. control mice (P-gp [1]; Elacridar (10 mg/kg, IV), ref Salama et al., 2005, Giri et al., 2008): 8.7 fold
Fold change in brain uptake ratio in inhibitor-treated vs. control mice (value corrected for drug in vasculature) (P-gp [1]; Elacridar (10 mg/kg, IV), ref Salama et al., 2005): 8.9 fold
Fold change in brain uptake ratio in inhibitor-treated vs. control mice (P-gp [1]; [13]): 10.3 fold
Fold change in brain uptake ratio in inhibitor-treated vs. control mice (value corrected for drug in vasculature) (P-gp [1]; [13]): 13.3 fold
Fold change in brain uptake ratio in inhibitor-treated vs. control mice (P-gp [1]; [14]): 1.0 (1.0), Conc. fold
Fold change in brain uptake ratio in inhibitor-treated vs. control mice (value corrected for drug in vasculature) (P-gp [1]; [14]): 1.0 (1.0), Conc. fold
Fold change in brain uptake ratio in inhibitor-treated vs. control mice (P-gp [1]; [12]): 18.1 fold
Fold change in brain uptake ratio in inhibitor-treated vs. control mice (value corrected for drug in vasculature) (P-gp [1]; [12]): 25.1 fold
Fold change in brain uptake ratio in inhibitor-treated vs. control mice (P-gp [1]; Zosuquidar (50 mg/kg, IV), ref Choo et al., 2000, listed as nelfinavir): up to 18 fold
EC50 (P-gp [4]): 1.4 to 44 µM

C=C[C@H]1C[N@@]2CC[C@H]1C[C@@H]2[C@@H](O)c1ccnc2ccc(OC)cc12 [Quinidine]
Inhibitor concentration (plasma) ([3]; 100 mg/kg, IP, ref Fromm et al., 1999): ~2 µM
Total concentration achievable in humans treated for tumors ([5]; ref Raderer & Scheithauer, 1993): 4.5 to 5.6 µM
EC50 (P-gp [4]): 2 to 55 µM

O[C@@H](COc1cccc2ncccc12)CN1CCN([C@@H]2c3ccccc3[C@@H]3[C@H](c4ccccc42)C3(F)F)CC1 [Zosuquidar]
Precipitant drug concentration (CSF) ([7]; in vivo): 8.5 ng/mL

O[C@@H](c1cc(C(F)(F)F)nc2c(C(F)(F)F)cccc12)[C@H]1CCCCN1 [(+) mefloquine, mefloquine]
Increase in brain-to-plasma AUC ratio with elacridar (P-gp [2]): 2.5 times

CC[C@]1(O)C[C@H]2CN(CCc3c([nH]c4ccccc34)[C@@](C(=O)OC)(c3cc4c(cc3OC)N(C=O)[C@H]3[C@@](O)(C(=O)OC)[C@H](OC(C)=O)[C@]5(CC)C=CCN6CC[C@]43[C@@H]65)C2)C1 [Vincristine]
Effect of exposure in Collie and other dog breeds that naturally lack P-gp (P-gp [8]): neurological symptoms

Cc1ccc(NC(=O)c2ccc(CN3CCN(C)CC3)cc2)cc1Nc1nccc(-c2cccnc2)n1 [Imatinib]
Enhancement of brain uptake by valspodar or zosuquidar (P-gp [1]; ref Bihorel et al., 2007): up to 3 fold
Increase in brain distribution with elacridar in WT mice (P-gp [1]; ref Breedveld et al., 2005, Oostendorp et al., 2009): up to 5 fold

Cc1nc(Nc2ncc(C(=O)Nc3c(C)cccc3Cl)s2)cc(N2CCN(CCO)CC2)n1 [dasatinib]
Increase of brain-to-plasma concentration ratio in triple KO mice (P-gp and BCRP): 10 fold

O=c1[nH]cnc2c1ncn2[C@H]1CC[C@@H](CO)O1 [Didanosine]
Precipitant drug concentration (plasma) ([7]; ref Tuntland et al., 1994): 0.9 to 11.3 µg/mL

CCC(C)n1ncn(-c2ccc(N3CCN(c4ccc(OCC5COC(Cn6cncn6)(c6ccc(Cl)cc6Cl)O5)cc4)CC3)cc2)c1=O (centres unmarked) [Itraconazole]
EC50 (P-gp [4]): 0.5 µM

CC[C@@]1(O)C(=O)OCc2c1cc1n(c2=O)Cc2cc3c(CN(C)C)c(O)ccc3nc2-1 [topotecan lactone]
Decrease of ventricular CSF-to-plasma AUC ratio with gefitinib (Bcrp): 17%

CC[C@H]1OC(=O)[C@H](C)[C@@H](O[C@H]2C[C@@](C)(OC)[C@@H](O)[C@H](C)O2)[C@H](C)[C@@H](O[C@@H]2O[C@H](C)C[C@H](N(C)C)[C@H]2O)[C@](C)(O)C[C@@H](C)C(=O)[C@H](C)[C@@H](O)[C@]1(C)O [Erythromycin]
EC50 (P-gp [4]): 38 µM

O[C@H](c1cc(C(F)(F)F)nc2c(C(F)(F)F)cccc12)[C@@H]1CCCCN1 [(-) mefloquine, mefloquine]
Increase in brain-to-plasma AUC ratio with elacridar (P-gp [2]): 1.5 times

[^18F]-Paclitaxel
CNS distribution in untreated subjects (brain / metabolite-corrected plasma AUC ratio) ([6]; ref Kurdziel et al., 2003): 0.05 (brain / metabolite-corrected plasma AUC ratio)

CNC(=O)C(CCN1CCC(O)(c2ccc(Cl)cc2)CC1)(c1ccccc1)c1ccccc1 [N-desmethyl-loperamide]
Increase of plasma AUC with ritonavir (200 mg twice daily, 5.5 days) [5]: 1.4 fold

COc1cccc2c1C(=O)c1c(O)c3c(c(O)c1C2=O)C[C@@](O)(C(=O)CO)C[C@@H]3O[C@H]1C[C@H](N)[C@H](O)[C@H](C)O1 [Doxorubicin]
CSF concentrations alone or with intravenous cyclosporine (P-gp [9]): below the limit of detection
Effect of exposure in Collie and other dog breeds that naturally lack P-gp (P-gp [8]): neurological symptoms
CNS distribution in untreated subjects (ventricular CSF / plasma conc. ratio) ([6]; ref Warren et al., 2000): < 0.05 (ventricular CSF / plasma conc. ratio)

CN(C)C(=O)C(CCN1CCC(O)(c2ccc(Cl)cc2)CC1)(c1ccccc1)c1ccccc1 [Loperamide]
Effect of exposure in Collie and other dog breeds that naturally lack P-gp (P-gp [8]): neurological symptoms
Increase of plasma AUC with 600 mg ritonavir ([5]; 12 healthy volunteers, ref Tayrouz et al., 2001): 2.7 fold
Increase of plasma AUC with ritonavir (200 mg twice daily, 5.5 days) [5]: 2.2 fold
Opioid-induced respiratory depression, given alone (P-gp [10]; [15]): did not produce respiratory depression
Opioid-induced respiratory depression, with quinidine sulfate (600 mg) (P-gp [10]; [15]): respiratory depression occurred
Effect of tariquidar (150 mg, iv) on plasma concentrations and CNS effects (P-gp [10]; loperamide 32 mg orally, nine healthy volunteers, ref Kurnik et al., 2008): did not significantly affect

Cc1cn([C@H]2C[C@H](N=[N+]=[N-])[C@@H](CO)O2)c(=O)[nH]c1=O [Zidovudine]
Precipitant drug concentration (CSF) ([7]; ref Tuntland et al., 1994): 100 to 2200 ng/mL
Precipitant drug concentration (plasma) ([7]; ref Tuntland et al., 1994): 0.5 to 11.2 µg/mL

CC[C@]1(O)C[C@@H]2CN(CCc3c([nH]c4ccccc34)[C@@](C(=O)OC)(c3cc4c(cc3OC)N(C)[C@H]3[C@@](O)(C(=O)OC)[C@H](OC(C)=O)[C@]5(CC)C=CCN6CC[C@]43[C@@H]65)C2)C1 [Vinblastine]
Effect of exposure in Collie and other dog breeds that naturally lack P-gp (P-gp [8]): neurological symptoms
Fold change in brain uptake ratio in P-gp KO vs. control mice (P-gp [11]): 3.3 fold
Fold change in brain uptake ratio in P-gp KO vs. control mice (value corrected for drug in vasculature) (P-gp [11]): 3.4 fold
Increase in brain uptake by valspodar and elacridar (P-gp [1]; ref Cisternino et al., 2001): 3 fold
